# Measurements reported in patent publication US8691256B2, “Pest control compositions and methods” (Tyratech, Inc., priority 2008, dated 2014).
# Like-named read-outs stand apart in the source and are kept apart here.
# Tests used:
# Periplaneta americana = assay: Pesticidal effect (mortality) against Periplaneta americana; assay type: in vivo; conditions: 30 minutes post-treatment, Blend 19 5%
# Method: With reference to FIG. 6A, the pesticidal effect against Periplaneta americana was determined for Blend 19 (labeled “HL1”, exemplified in Ingredient Family 15 in Table 6) and the composition including clothianidin (CL) and Blend 19.
# With reference to FIG. 6B, the pesticidal effect against Periplaneta americana was determined for Blend 19 (labeled “HL1”) and the composition including Imidacloprid and Blend 19.
# Aedes aegypti = assay: Pesticidal effect (KD) against Aedes aegypti; assay type: in vivo
# Method: With reference to FIG. 4A, the pesticidal effect against Aedes aegypti was determined for Blend 19 (labeled “HL1”, exemplified in Ingredient Family 15 in Table 6) and the composition including clothianidin (CL) and Blend 19.
# Similarly, with reference to FIG. 4B, the pesticidal effect against Aedes aegypti was determined for Blend 19 (labeled “HL1”) and the composition including CL and Blend 19.
# Similarly, with reference to FIG. 4C, the pesticidal effect against Aedes aegypti was determined for Blend 19 (labeled “HL1”) and the composition including Imidacloprid and Blend 19.
# With reference to FIG. 5, the pesticidal effect against Aedes aegypti was determined for Blend 11 (labeled “B5028”, exemplified in Ingredient Family 2 in Table 6) and the composition including Imidacloprid (labeled “I”) and B5028.
# [1] = test system: Blattella germanica (German cockroaches); assay: Pesticidal effect against German cockroaches (knock down and 100% kill time); assay type: in vivo
# Method: With reference to Table 9, the pesticidal effect against Blattella germanica (German cockroaches) was determined for DM, Blend 12 (exemplified in Ingredient Family 9 of Table 6), and the composition including deltamethrin (DM) and Blend 12.
# Similarly, with reference to Table 10, the pesticidal effect against German cockroaches was determined for deltamethrin (DM), Blend 7 (exemplified in Ingredient Family 5 of Table 6), and the composition including DM and Blend 7.
# Drosphila melanogaster = assay: Toxicity against Drosphila melanogaster by direct spray onto flies; assay type: in vivo, Drosophila melanogaster; conditions: 30 flies per composition, Fipronil 20 ppm, Blend 19 0.5 μg/fly, combination 0.5 μg Blend 19 + 20 ppm fipronil
# Method: With reference to Table 14, the pesticidal effect against drosphila melanogaster was determined for Blend 19 and the composition including fipnoril and Blend 19. The composition of Blend 19 is also exemplified in Ingredient Family 15 of Table 6. Each composition was tested on 30 drosphila melanogaster by spraying directly onto the flies. Treatment with acetone as control at 0.5 μl/fly killed 2 flies, fipnoril alone at 20 ppm killed 12 flies, and Blend 19 alone at 0.5 μg/fly killed 10 flies. However, treatment with fipronil at 20 ppm combined with Blend 19 at 0.5 μg/fly killed all of the 30 flies.
# adult green peach aphids = assay: Greenhouse spray test against adult green peach aphids; assay type: in vivo; conditions: imidacloprid in water at 100 ppm; three days after spraying
# Source text: Adult green peach aphids were observed and counted on the plants in a greenhouse. Then different compositions were sprayed directly onto the plants with aphids. Three days after the composition was applied, aphids were counted again to evaluate the pesticidal effects of the composition.
# Drosophila sp. = assay: Pesticidal effect (KD) against Drosophila sp.; assay type: in vivo; conditions: 30 seconds post-treatment; Imidacloprid 50 ppm; Blend 19 2.5%; combination 50 ppm + 2.5% (FIG. 4D)
# Method: Similarly, with reference to FIG. 4D, the pesticidal effect against Drosophila sp. was determined for Blend 19 (labeled “HL1”) and the composition including Imidacloprid and Blend 19.
# thrips = assay: Knockdown and mortality of thrips; assay type: in vivo
# Method: Thrips were exposed to three different groups of compositions. Both knockdown (KD) and mortality were measured at indicated time intervals. Knockdown of target pests is measured in a plexilglass chamber at indicated intervals. Mortality of target pests is measured in cylindrical polyethylene containers with 10% sucrose pads. The mortality value is based on a combination of dead and moribund pests over the total number of pests initially released.
# Thrips were exposed to three different groups of compositions. […] The composition of Blend 8 is exemplified in Ingredient Family 21 in Table 6.
# Thrips were exposed to three different groups of compositions. […] Blend 38 (label “B5049” and “TT 1A”) is exemplified in Ingredient Family 12 in Table 6.
# tyramine receptor (TyrR) = target: T1, tyramine receptor (TyrR) (Drosophila melanogaster, UniProt P22270); assay: 3H-tyramine saturation and inhibition binding to membranes of Schneider cells expressing tyramine receptor; conditions: for efficiency at displacing ^3H-tyramine binding: compared with tyramine
# T1 construct: oligonucleotides that are used to amplify the open reading frame of the Drosophila tyramine receptor (TyrR); expressed in transfected cells; whole cells or crude membrane fractions
# T1 sequence (P22270 27-601): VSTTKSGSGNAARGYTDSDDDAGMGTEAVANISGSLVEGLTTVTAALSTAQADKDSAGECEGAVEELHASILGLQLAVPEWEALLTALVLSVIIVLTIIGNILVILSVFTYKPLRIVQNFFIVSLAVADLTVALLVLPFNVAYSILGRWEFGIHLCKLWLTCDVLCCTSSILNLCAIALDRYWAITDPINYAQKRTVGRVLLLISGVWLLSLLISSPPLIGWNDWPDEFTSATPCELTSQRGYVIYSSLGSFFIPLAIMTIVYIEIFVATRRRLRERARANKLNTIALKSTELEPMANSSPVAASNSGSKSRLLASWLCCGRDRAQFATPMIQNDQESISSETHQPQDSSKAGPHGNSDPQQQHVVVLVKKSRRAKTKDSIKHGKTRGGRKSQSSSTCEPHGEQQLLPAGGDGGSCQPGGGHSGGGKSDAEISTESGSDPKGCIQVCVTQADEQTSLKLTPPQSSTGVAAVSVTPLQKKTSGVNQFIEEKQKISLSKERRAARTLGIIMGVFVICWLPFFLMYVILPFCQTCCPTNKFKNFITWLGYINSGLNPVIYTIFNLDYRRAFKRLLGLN
# tyramine receptor = target: T2, tyramine receptor (Drosophila melanogaster, UniProt P22270); assay: Whole cell 3H-tyramine binding/uptake in transfected Schneider cells
# T2 construct: oligonucleotides that are used to amplify the open reading frame of the Drosophila tyramine receptor (TyrR); expressed in transfected cells; whole cells or crude membrane fractions
# T2 sequence (P22270 27-601): T1 sequence (P22270 27-601)
# Source text: For transfection, Drosophila Schneider cells are stably transfected with pAc5(B)-TyrR ORF using the calcium phosphate-DNA coprecipitation protocol as described by Invitrogen Drosophila Expression System (DES) manual. The precipitation protocol is the same for either transient or stable transfection except for the use of an antibiotic resistant plasmid for stable transfection. At least about ten clones of stably transfected cells are selected and separately propagated. Stable clones expressing the receptors are selected by whole cell binding/uptake using ^3H-tyramine. […] Nonspecific binding is determined by including about 50 μM unlabeled-tyramine in the reaction. Binding is quantified counting radioactivity using a using a Liquid Scintillation β-counter (Beckman, Model LS1801). […]
# Cells transfected with the tyramine receptor (about 1×10^6 cells/ml) are cultured in each well of a multi-well plate. […] Solubilized cells are transferred into about 4 ml Liquid Scintillation Solution (LSS) and vigorously vortexed for about 30 sec before counting the radioactivity using a Liquid Scintillation β-counter (Beckman, Model LS1801) (LSC).
# Receptor specific binding data is expressed as fmol specific binding per 1×10^6 cells and measured as a function of ^3H-tyramine concentration. […]
# [2] = Thrips, 24 h, read-out: mortality of the thrips
# [3] = imidacloprid alone at 1 ppm, till the end of the experiment at 24 hours post treatment
# [4] = imidacloprid alone at 10 ppm, till the end of the experiment at 24 hours post treatment
# [5] = saturation binding to membranes of Schneider cells expressing tyramine receptor
smiles,measurement,setting,value
"CN/C(=N\[N+](=O)[O-])NCc1cnc(Cl)s1 [CL, clothianidin]",mortality of the target insect,"Periplaneta americana; CL 0.05%, combination 0.05% + 5% (FIG. 6A)",no mortality
same,KD of the target insect,Aedes aegypti; CL alone at 250 ppm (FIG. 4B),no KD
same,KD of the target insect,Aedes aegypti; CL alone at 500 ppm (FIG. 4A),no KD
"CC1(C)[C@H](C(=O)O[C@H](C#N)c2cccc(Oc3ccccc3)c2)[C@@H]1C=C(Br)Br [DM, deltamethrin]",100% Kill,"[1]; Table 9: DM 0.037 mg/cm^2, Blend 12 1.9 mg/cm^2",15 min
same,100% Kill,[1]; Table 10: DM 0.037 mg/cm^2,12 min
N#Cc1nn(-c2c(Cl)cc(C(F)(F)F)cc2Cl)c(N)c1[S+]([O-])C(F)(F)F (centres unmarked) [Fipronil],# of Flies Killed,Drosphila melanogaster,12/30
same,# of Flies Killed,Drosphila melanogaster; listed as fipnoril,12
O=[N+]([O-])NC1=NCCN1Cc1ccc(Cl)nc1 [Imidacloprid],mortality of the target insect,"Periplaneta americana; Imidacloprid alone at 0.05%, 0.033% and 0.01%, combination Imidacloprid 0.033% + 5% Blend 19 (FIG. 6B)",no mortality
same,change in aphid numbers,adult green peach aphids,No changes in aphid numbers
same,KD of the target insect,"Aedes aegypti; 30 seconds post-treatment, Imidacloprid 250 ppm, Blend 19 2.5%, combination 250 ppm + 2.5% (FIG. 4C)",20%
same,KD of the target insect,"Aedes aegypti; Imidacloprid 500 ppm, B5028 5%, combination 500 ppm + 5% (FIG. 5)",no KD
same,KD of the target insect,Drosophila sp.,0%
same,mortality at 100 ppm,"thrips; Thrips, 2 h, read-out: mortality of the thrips",10%
same,mortality at 100 ppm,"thrips; Thrips, 4 h, read-out: mortality of the thrips",20%
same,mortality at 50 ppm,thrips; [2],50%
same,mortality at 100 ppm,thrips; [2],40%
same,KD of the thrips,thrips; [3],no KD
same,mortality of the thrips,thrips; [3],no mortality
same,KD of the thrips,thrips; [4],no KD
same,mortality of the thrips,thrips; [4],no mortality
same,KD of the thrips,"thrips; imidacloprid alone at 20 ppm, 24 hours post treatment",12%
same,mortality of the thrips,"thrips; imidacloprid alone at 20 ppm, till the end of the experiment at 24 hours post treatment",no mortality
same,KD of the thrips,"thrips; imidacloprid alone at 50 ppm, 24 hours post treatment",100%
same,KD of the thrips,"thrips; imidacloprid alone at 100 ppm, 2 hours post treatment",10%
same,KD of the thrips,"thrips; imidacloprid alone at 100 ppm, 4 hours post treatment",20%
same,KD of the thrips,"thrips; imidacloprid alone at 100 ppm, 24 hours post treatment",80%
NCC(O)c1ccc(O)cc1 (centres unmarked) [Octopamine],rank order of potency (Ki and EC50),tyramine receptor (TyrR),tyramine>octopamine>dopamine>serotonin
same,efficiency at displacing ^3H-tyramine binding,tyramine receptor (TyrR),less efficient than tyramine
"NCCc1ccc(O)cc1 [Tyramine (TA), Tyramine]",response of untransfected cells,tyramine receptor; concentrations as high as about 100 μM,do not respond
same,rank order of potency (Ki and EC50),tyramine receptor (TyrR),tyramine>octopamine>dopamine>serotonin
NCCc1ccc(O)cc1 [^3H-tyramine],^3H-tyramine concentration at which maximum specific binding occurs,tyramine receptor; whole transfected cells,about 5 nM
same,Bmax,tyramine receptor (TyrR); [5],about 0.679 pmol/mg protein
same,Kd,tyramine receptor (TyrR); [5],~1.26 nM
"NCCc1ccc(O)c(O)c1 [dopamine, Dopamine]",rank order of potency (Ki and EC50),tyramine receptor (TyrR),tyramine>octopamine>dopamine>serotonin
same,efficiency at displacing ^3H-tyramine binding,tyramine receptor (TyrR),less efficient than tyramine
